Data: patent US9102678B2, “Compounds and methods for inhibiting mitotic progression” (Millennium Pharmaceuticals, Inc., priority 2004, dated 2015)

What follows are compounds tested against T1, recombinant murine Aurora A enzyme (Mus musculus, UniProt P97477) (assay: Aurora A DELFIA Kinase Assay). Settings: mouse Aurora A, 250 μM ATP; threshold less than or equal to 100 nM; read-out: IC50.
T1 construct: hexahistidine (His6) (N); made in house; host or cells: insect cells, baculovirus (Bac-to-Bac, Invitrogen)
T1 sequence (P97477 whole entry): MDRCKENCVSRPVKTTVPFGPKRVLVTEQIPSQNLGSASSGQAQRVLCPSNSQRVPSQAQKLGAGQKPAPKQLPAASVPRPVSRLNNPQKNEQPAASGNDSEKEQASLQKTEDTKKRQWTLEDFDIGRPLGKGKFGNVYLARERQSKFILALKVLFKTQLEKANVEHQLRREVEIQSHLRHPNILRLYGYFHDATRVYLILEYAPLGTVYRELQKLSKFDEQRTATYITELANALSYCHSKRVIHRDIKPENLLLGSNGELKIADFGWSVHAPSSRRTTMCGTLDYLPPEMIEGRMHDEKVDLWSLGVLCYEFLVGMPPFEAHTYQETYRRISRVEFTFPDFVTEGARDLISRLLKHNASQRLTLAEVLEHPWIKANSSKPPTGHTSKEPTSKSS
Assay type: biochemical

Row | IC50 [nM] | Structure (SMILES)
1 | ≤ 100 | CN1CCN(C(=O)Nc2ccc(Nc3ncc4c(n3)-c3ccc(Cl)cc3C(c3c(F)cccc3F)=NC4)cc2)CC1 [Compound I-280, 4-Methyl-piperazine-1-carboxylic acid {4-[9-chloro-7-(2,6-difluoro-phenyl)-5H-benzo[c]pyrimido[4,5-e]azepin-2-ylamino]-phenyl}-amide]
2 | ≤ 100 | COc1cccc(F)c1C1=NCc2cnc(Nc3ccc(C(=O)O)cc3)nc2-c2ccc(Cl)cc21 [Compound I-190, 4-[9-Chloro-7-(2-fluoro-6-methoxy-phenyl)-5H-benzo[c]pyrimido[4,5-e]azepin-2-ylamino]-benzoic acid]
3 | ≤ 100 | NC(=O)c1ccc(Nc2ncc3c(n2)-c2ccc(Cl)cc2C(c2ccccc2Cl)=NC3)cc1 [Compound I-63, 4-[9-Chloro-7-(2-chloro-phenyl)-5H-benzo[c]pyrimido[4,5-e]azepin-2-ylamino]-benzamide]
4 | ≤ 100 | CN(CCc1ccccn1)C(=O)c1ccc(Nc2ncc3c(n2)-c2ccc(Cl)cc2C(c2ccccc2F)=NC3)cc1 [Compound I-160, 4-[9-Chloro-7-(2-fluoro-phenyl)-5H-benzo[c]pyrimido[4,5-e]azepin-2-ylamino]-N-methyl-N-(2-pyridin-2-yl-ethyl)-benzamide]
5 | ≤ 100 | CNC(=O)c1csc(Nc2ncc3c(n2)-c2ccc(Cl)cc2C(c2c(F)cccc2F)=NC3)n1 [Compound I-355, 2-{[9-chloro-7-(2,6-difluorophenyl)-5H-pyrimido[5,4-d][2]benzazepin-2-yl]amino}-N-methyl-1,3-thiazole-4-carboxamide]
6 | ≤ 100 | Cc1ccc2c(c1)C(c1ccccc1F)=NCc1cnc(Nc3ccc(C(=O)O)cc3)nc1-2 [Compound I-58, 4-[7-(2-Fluoro-phenyl)-9-methyl-5H-benzo[c]pyrimido[4,5-e]azepin-2-ylamino]-benzoic acid]
7 | ≤ 100 | CNCCNC(=O)c1ccc(Nc2ncc3c(n2)-c2ccc(Cl)cc2C(c2ccccc2F)=NC3)cc1 [Compound I-1, 4-[9-Chloro-7-(2-fluoro-phenyl)-5H-benzo[c]pyrimido[4,5-e]azepin-2-ylamino]-N-(2-methylamino-ethyl)-benzamide]
8 | ≤ 100 | CNC1CCCN(C(=O)c2ccc(Nc3ncc4c(n3)-c3ccc(Cl)cc3C(c3c(F)cccc3OC)=NC4)cc2)C1 (stereo not drawn) [Compound I-263, 9-chloro-7-(2-fluoro-6-methoxyphenyl)-N-(4-{[3-(methylamino)piperidin-1-yl]carbonyl}phenyl)-5H-pyrimido[5,4-d][2]benzazepin-2-amine]
9 | ≤ 100 | COc1ccc2c(c1)C(c1ccccc1F)=NCc1cnc(Nc3ccc(C(=O)N4CCC(N(C)C)C4)cc3)nc1-2 (stereo not drawn) [Compound I-93, (3-Dimethylamino-pyrrolidin-1-yl)-{4-[7-(2-fluoro-phenyl)-9-methoxy-5H-benzo[c]pyrimido[4,5-e]azepin-2-ylamino]-phenyl}-methanone]
10 | ≤ 100 | CNC1CN(C(=O)c2ccc(Nc3ncc4c(n3)-c3ccc(Cl)cc3C(c3c(F)cccc3OC)=NC4)cc2)C1 [Compound I-235, 9-chloro-7-(2-fluoro-6-methoxyphenyl)-N-(4-{[3-(methylamino)azetidin-1-yl]carbonyl}phenyl)-5H-pyrimido[5,4-d][2]benzazepin-2-amine]
11 | ≤ 100 | CCOC(=O)C1CN=C(c2ccc(Nc3ncc4c(n3)-c3ccc(Cl)cc3C(c3c(F)cccc3F)=NC4)cc2)N1 (stereo not drawn) [Compound I-314, ethyl 2-(4-{[9-chloro-7-(2,6-difluorophenyl)-5H-pyrimido[5,4-d][2]benzazepin-2-yl]amino}phenyl)-4,5-dihydro-1H-imidazole-5-carboxylate]
12 | ≤ 100 | NC1CCN(C(=O)c2ccc(Nc3ncc4c(n3)-c3ccc(Cl)cc3C(c3c(F)cccc3F)=NC4)cc2Cl)C1 (stereo not drawn) [Compound I-318]
13 | ≤ 100 | C[C@@H]1CN(C(=O)c2csc(Nc3ncc4c(n3)-c3ccc(Cl)cc3C(c3c(F)cccc3F)=NC4)n2)CCN1 [Compound I-365, 9-chloro-7-(2,6-difluorophenyl)-N-(4-{[(3R)-3-methylpiperazin-1-yl]carbony}-1,3-thiazol-2-yl)-5H-pyrimido[5,4-d][2]benzazepin-2-amine]
14 | ≤ 100 | CNC1CCCN(C(=O)c2ccc(Nc3ncc4c(n3)-c3ccc(Cl)cc3C(c3ccccc3OC)=NC4)cc2)C1 (stereo not drawn) [Compound I-333, 9-chloro-7-(2-methoxyphenyl)-N-(4-{[3-(methylamino)piperidin-1-yl]carbonyl}phenyl)-5H-pyrimido[5,4-d][2]benzazepin-2-amine]
15 | ≤ 100 | Cc1ccccc1C1=NCc2cnc(Nc3ccc(C(=O)N4CCN(C)CC4)cc3)nc2-c2ccc(Cl)cc21 [Compound I-11, [4-(9-Chloro-7-o-tolyl-5H-benzo[c]pyrimido[4,5-e]azepin-2-ylamino)-phenyl]-(4-methyl-piperazin-1-yl)-methanone]
16 | ≤ 100 | CC1CN(C(=O)c2csc(Nc3ncc4c(n3)-c3ccc(Cl)cc3C(c3c(F)cccc3F)=NC4)n2)CC(C)N1 (stereo not drawn) [Compound I-362, 9-chloro-7-(2,6-difluorophenyl)-N-{4-[(3,5-dimethylpiperazin-1-yl)carbonyl]-1,3-thiazol-2-yl}-5H-pyrimido[5,4-d][2]benzazepin-2-amine]
17 | ≤ 100 | CCN(CC)CCCN1CCN(C(=O)c2ccc(Nc3ncc4c(n3)-c3ccc(Cl)cc3C(c3ccccc3F)=NC4)cc2)CC1 [Compound I-208, 9-chloro-N-[4-({4-[3-(diethylamino)propyl]piperazin-1-yl}carbonyl)phenyl]-7-(2-fluorophenyl)-5H-pyrimido[5,4-d][2]benzazepin-2-amine]
18 | ≤ 100 | CN(CCCN)C(=O)c1ccc(Nc2ncc3c(n2)-c2ccc(Cl)cc2C(c2ccccc2F)=NC3)cc1 [Compound I-117, N-(3-Amino-propyl)-4-[9-chloro-7-(2-fluoro-phenyl)-5H-benzo[c]pyrimido[4,5-e]azepin-2-ylamino]-N-methyl-benzamide]
19 | ≤ 100 | CN1CCN(CCCNC(=O)c2ccc(Nc3ncc4c(n3)-c3ccc(Cl)cc3C(c3ccccc3Cl)=NC4)cc2)CC1 [Compound I-20, 4-[9-Chloro-7-(2-chloro-phenyl)-5H-benzo[c]pyrimido[4,5-e]azepin-2-ylamino]-N-[3-(4-methyl-piperazin-1-yl)-propyl]-benzamide]
20 | ≤ 100 | CN(C)C1CCN(C(=O)c2cccc(Nc3ncc4c(n3)-c3ccc(Cl)cc3C(c3c(F)cccc3F)=NC4)c2)CC1 [Compound I-205, 9-chloro-7-(2,6-difluorophenyl)-N-(3-{[4-(dimethylamino)piperidin-1-yl]carbonyl}phenyl)-5H-pyrimido[5,4-d][2]benzazepin-2-amine]
21 | ≤ 100 | CN(C)C1CN(C(=O)c2cccc(Nc3ncc4c(n3)-c3ccc(Cl)cc3C(c3c(F)cccc3F)=NC4)c2)C1 [Compound I-204, 9-chloro-7-(2,6-difluorophenyl)-N-(3-{[3-(dimethylamino)azetidin-1-yl]carbonyl}phenyl)-5H-pyrimido[5,4-d][2]benzazepin-2-amine]
22 | ≤ 100 | O=C(NCCc1c[nH]cn1)c1ccc(Nc2ncc3c(n2)-c2ccc(Cl)cc2C(c2ccccc2F)=NC3)cc1 [Compound I-147, 4-[9-Chloro-7-(2-fluoro-phenyl)-5H-benzo[c]pyrimido[4,5-e]azepin-2-ylamino]-N-[2-(1H-imidazol-4-yl)-ethyl]-benzamide]
23 | ≤ 100 | CNC1CN(C(=O)c2ccc(Nc3ncc4c(n3)-c3ccc(Cl)cc3C(c3c(F)cccc3F)=NC4)cc2)C1 [Compound I-234, 9-chloro-7-(2,6-difluorophenyl)-N-(4-{[3-(methylamino)azetidin-1-yl]carbonyl}phenyl)-5H-pyrimido[5,4-d][2]benzazepin-2-amine]
24 | ≤ 100 | CN(C)C1CCN(C(=N)NC(=O)c2ccc(Nc3ncc4c(n3)-c3ccc(Cl)cc3C(c3c(F)cccc3F)=NC4)cc2)C1 (stereo not drawn) [Compound I-237, 4-[9-Chloro-7-(2,6-difluoro-phenyl)-5H-benzo[c]pyrimido[4,5-e]azepin-2-ylamino]-N-[(3-dimethylamino-pyrrolidin-1-yl)-imino-methyl]-benzamide]
25 | ≤ 100 | C[C@H]1CN(C(=O)c2ccc(Nc3ncc4c(n3)-c3ccc(Cl)cc3C(c3c(F)cccc3F)=NC4)cc2)CCN1 [Compound I-191, {4-[9-Chloro-7-(2,6-difluoro-phenyl)-5H-benzo[c]pyrimido[4,5-e]azepin-2-ylamino]-phenyl}-(3(S)-methyl-piperazin-1-yl)-methanone]
26 | ≤ 100 | COc1cccc(F)c1C1=NCc2cnc(Nc3cccc(C(=O)N4CCC(N(C)C)CC4)c3)nc2-c2ccc(Cl)cc21 [Compound I-229, 9-chloro-N-(3-{[4-(dimethylamino)piperidin-1-yl]carbonyl}phenyl)-7-(2-fluoro-6-methoxyphenyl)-5H-pyrimido[5,4-d][2]benzazepin-2-amine]
27 | ≤ 100 | O=C(NCCN1CCOCC1)c1ccc(Nc2ncc3c(n2)-c2ccc(Cl)cc2C(c2ccccc2F)=NC3)cc1 [Compound I-29, 4-[9-Chloro-7-(2-fluoro-phenyl)-5H-benzo[c]pyrimido[4,5-e]azepin-2-ylamino]-N-(2-morpholin-4-yl-ethyl)-benzamide]
28 | ≤ 100 | CN(C)CCCc1cccc(Nc2ncc3c(n2)-c2ccc(Cl)cc2C(c2c(F)cccc2F)=NC3)c1 [Compound I-372, 9-chloro-7-(2,6-difluorophenyl)-N-{3-[3-(dimethylamino)propyl]phenyl}-5H-pyrimido[5,4-d][2]benzazepin-2-amine]
29 | ≤ 100 | NC1CN(C(=O)c2ccc(Nc3ncc4c(n3)-c3ccc(Cl)cc3C(c3c(F)cccc3F)=NC4)cc2)C1 [Compound I-278, N-{4-[(3-aminoazetidin-1-yl)carbonyl]phenyl}-9-chloro-7-(2,6-difluorophenyl)-5H-pyrimido[5,4-d][2]benzazepin-2-amine]
30 | ≤ 100 | O=C(c1ccc(Nc2ncc3c(n2)-c2ccc(Cl)cc2C(c2c(F)cccc2F)=NC3)cc1)N1CCNCC1 [Compound I-195, {4-[9-Chloro-7-(2,6-difluoro-phenyl)-5H-benzo[c]pyrimido[4,5-e]azepin-2-ylamino]-phenyl}-piperazin-1-yl-methanone]
